From PubChem BioAssay AID1918991 (Molecular Pharmacology Branch, DTP, NCI, 2023)
Each block holds one molecule with its values, some of them ahead of it.

System: 186277-243-T-J2-PDC complex spheroid growth
Experiment: Anticancer human tumor 186277-243-T-J2-PDC patient-derived colon adenocarcinoma cell line growth inhibition [AhR]
Details: for IC50: curve of first compound; for viability, T/C: stronger effect = lower value
Procedure, shortened: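 Agents were dosed in half-log steps down from roughly clinical Cmax, or from 10 microM where Cmax was unknown, alone and with AhR antagonists. Read-out: percent test/control growth of tumor spheroids containing HUVEC and MSC stromal cells.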

[1] = second compound 0.1 µM, first compound 0.0316 µM
[2] = second compound 0.1 µM, first compound 0.1 µM
[3] = second compound 0.1 µM, first compound 0.316 µM
[4] = second compound 0.1 µM, first compound 1 µM
[5] = second compound 0.1 µM, first compound 3.16 µM
[6] = second compound 0.1 µM, first compound 10 µM
[7] = second compound 0.316 µM, first compound 0.0316 µM
[8] = second compound 0.316 µM, first compound 0.1 µM
[9] = second compound 0.316 µM, first compound 0.316 µM
[10] = second compound 0.316 µM, first compound 1 µM
[11] = second compound 0.316 µM, first compound 3.16 µM
[12] = second compound 0.316 µM, first compound 10 µM
[13] = second compound 1 µM, first compound 0.0316 µM
[14] = second compound 1 µM, first compound 0.1 µM
[15] = second compound 1 µM, first compound 0.316 µM
[16] = second compound 1 µM, first compound 1 µM
[17] = second compound 1 µM, first compound 3.16 µM
[18] = second compound 1 µM, first compound 10 µM
[19] = second compound 3.16 µM, first compound 0.0316 µM
[20] = second compound 3.16 µM, first compound 0.1 µM
[21] = second compound 3.16 µM, first compound 0.316 µM
[22] = second compound 3.16 µM, first compound 1 µM
[23] = second compound 3.16 µM, first compound 3.16 µM
[24] = second compound 3.16 µM, first compound 10 µM
[25] = second compound 10 µM, first compound 0.0316 µM
[26] = second compound 10 µM, first compound 0.1 µM
[27] = second compound 10 µM, first compound 0.316 µM
[28] = second compound 10 µM, first compound 1 µM
[29] = second compound 10 µM, first compound 3.16 µM
[30] = second compound 10 µM, first compound 10 µM
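Also: spheroids exposed to compounds for seven days before the viability read.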
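For viability, T/C in this document: luminescent signal used as a stand-in for viable cell amount; 100% = DMSO vehicle control wells.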

IC50 (second compound 0.1 µM): > 10000 nM | IC50 (second compound 0.316 µM): > 10000 nM | IC50 (second compound 1 µM): > 10000 nM | IC50 (second compound 3.16 µM): > 10000 nM | IC50 (second compound 10 µM): > 10000 nM
SMILES: CC1(C)CCC(CN2CCN(c3ccc(C(=O)NS(=O)(=O)c4ccc(NCC5CCOCC5)c([N+](=O)[O-])c4)c(Oc4cnc5[nH]ccc5c4)c3)CC2)=C(c2ccc(Cl)cc2)C1 + Cc1cncc(-c2nc(NCCc3c[nH]c4ccccc34)c3ncn(C(C)C)c3n2)c1
viability, T/C [1]: 88.2% | viability, T/C [2]: 97.7% | viability, T/C [3]: 99.4% | viability, T/C [4]: 91.4% | viability, T/C [5]: 94.3% | viability, T/C [6]: 94.8% | viability, T/C [7]: 109% | viability, T/C [8]: 87.4% | viability, T/C [9]: 102% | viability, T/C [10]: 83.5% | viability, T/C [11]: 100% | viability, T/C [12]: 106% | viability, T/C [13]: 102% | viability, T/C [14]: 85.5% | viability, T/C [15]: 97.4% | viability, T/C [16]: 97.9% | viability, T/C [17]: 103% | viability, T/C [18]: 103% | viability, T/C [19]: 110% | viability, T/C [20]: 108% | viability, T/C [21]: 105% | viability, T/C [22]: 103% | viability, T/C [23]: 109% | viability, T/C [24]: 105% | viability, T/C [25]: 77% | viability, T/C [26]: 81.6% | viability, T/C [27]: 82.8% | viability, T/C [28]: 95.5% | viability, T/C [29]: 88.4% | viability, T/C [30]: 88.5%

IC50 (second compound 0.1 µM): > 3000 nM | IC50 (second compound 0.316 µM): > 3000 nM | IC50 (second compound 1 µM): > 3000 nM | IC50 (second compound 3.16 µM): > 3000 nM | IC50 (second compound 10 µM): 652 nM
SMILES: CCN(c1cc(-c2ccc(CN3CCOCC3)cc2)cc(C(=O)NCc2c(C)cc(C)[nH]c2=O)c1C)C1CCOCC1 + Cc1cncc(-c2nc(NCCc3c[nH]c4ccccc34)c3ncn(C(C)C)c3n2)c1
viability, T/C (second compound 0.1 µM, first compound 0.00949 µM): 106% | viability, T/C (second compound 0.1 µM, first compound 0.03 µM): 89.7% | viability, T/C (second compound 0.1 µM, first compound 0.0949 µM): 108% | viability, T/C (second compound 0.1 µM, first compound 0.3 µM): 102% | viability, T/C (second compound 0.1 µM, first compound 0.949 µM): 94% | viability, T/C (second compound 0.1 µM, first compound 3 µM): 98.5% | viability, T/C (second compound 0.316 µM, first compound 0.00949 µM): 91.8% | viability, T/C (second compound 0.316 µM, first compound 0.03 µM): 110% | viability, T/C (second compound 0.316 µM, first compound 0.0949 µM): 102% | viability, T/C (second compound 0.316 µM, first compound 0.3 µM): 101% | viability, T/C (second compound 0.316 µM, first compound 0.949 µM): 106% | viability, T/C (second compound 0.316 µM, first compound 3 µM): 103% | viability, T/C (second compound 1 µM, first compound 0.00949 µM): 98% | viability, T/C (second compound 1 µM, first compound 0.03 µM): 115% | viability, T/C (second compound 1 µM, first compound 0.0949 µM): 115% | viability, T/C (second compound 1 µM, first compound 0.3 µM): 102% | viability, T/C (second compound 1 µM, first compound 0.949 µM): 111% | viability, T/C (second compound 1 µM, first compound 3 µM): 107% | viability, T/C (second compound 3.16 µM, first compound 0.00949 µM): 102% | viability, T/C (second compound 3.16 µM, first compound 0.03 µM): 103% | viability, T/C (second compound 3.16 µM, first compound 0.0949 µM): 103% | viability, T/C (second compound 3.16 µM, first compound 0.3 µM): 105% | viability, T/C (second compound 3.16 µM, first compound 0.949 µM): 90.7% | viability, T/C (second compound 3.16 µM, first compound 3 µM): 119% | viability, T/C (second compound 10 µM, first compound 0.00949 µM): 84.8% | viability, T/C (second compound 10 µM, first compound 0.03 µM): 98.5% | viability, T/C (second compound 10 µM, first compound 0.0949 µM): 82.9% | viability, T/C (second compound 10 µM, first compound 0.3 µM): 72.1% | viability, T/C (second compound 10 µM, first compound 0.949 µM): 39.6% | viability, T/C (second compound 10 µM, first compound 3 µM): 9.95%

IC50 (second compound 0.1 µM): > 100 nM | IC50 (second compound 0.316 µM): > 100 nM | IC50 (second compound 1 µM): > 100 nM | IC50 (second compound 3.16 µM): > 100 nM | IC50 (second compound 10 µM): > 100 nM
SMILES: Cn1ncnc1C1c2n[nH]c(=O)c3cc(F)cc(c23)NC1c1ccc(F)cc1 (stereo not given) + Cc1cncc(-c2nc(NCCc3c[nH]c4ccccc34)c3ncn(C(C)C)c3n2)c1
viability, T/C (second compound 0.1 µM, first compound 0.000316 µM): 89% | viability, T/C (second compound 0.1 µM, first compound 0.001 µM): 83.9% | viability, T/C (second compound 0.1 µM, first compound 0.00316 µM): 100% | viability, T/C (second compound 0.1 µM, first compound 0.01 µM): 107% | viability, T/C [1]: 115% | viability, T/C [2]: 123% | viability, T/C (second compound 0.316 µM, first compound 0.000316 µM): 109% | viability, T/C (second compound 0.316 µM, first compound 0.001 µM): 103% | viability, T/C (second compound 0.316 µM, first compound 0.00316 µM): 95% | viability, T/C (second compound 0.316 µM, first compound 0.01 µM): 110% | viability, T/C [7]: 121% | viability, T/C [8]: 135% | viability, T/C (second compound 1 µM, first compound 0.000316 µM): 92.5% | viability, T/C (second compound 1 µM, first compound 0.001 µM): 97.1% | viability, T/C (second compound 1 µM, first compound 0.00316 µM): 102% | viability, T/C (second compound 1 µM, first compound 0.01 µM): 107% | viability, T/C [13]: 130% | viability, T/C [14]: 139% | viability, T/C (second compound 3.16 µM, first compound 0.000316 µM): 102% | viability, T/C (second compound 3.16 µM, first compound 0.001 µM): 95.3% | viability, T/C (second compound 3.16 µM, first compound 0.00316 µM): 99.3% | viability, T/C (second compound 3.16 µM, first compound 0.01 µM): 112% | viability, T/C [19]: 127% | viability, T/C [20]: 128% | viability, T/C (second compound 10 µM, first compound 0.000316 µM): 77.4% | viability, T/C (second compound 10 µM, first compound 0.001 µM): 90.7% | viability, T/C (second compound 10 µM, first compound 0.00316 µM): 83.7% | viability, T/C (second compound 10 µM, first compound 0.01 µM): 66.9% | viability, T/C [25]: 69.6% | viability, T/C [26]: 68%

IC50 (second compound 0.1 µM): 693 nM | IC50 (second compound 0.316 µM): 563 nM | IC50 (second compound 1 µM): 492 nM | IC50 (second compound 3.16 µM): 365 nM | IC50 (second compound 10 µM): 41 nM
SMILES: NS(=O)(=O)OCC1CC(n2ccc3c(NC4CCc5ccccc54)ncnc32)CC1O (stereo not given) + Cc1cncc(-c2nc(NCCc3c[nH]c4ccccc34)c3ncn(C(C)C)c3n2)c1
viability, T/C [1]: 114% | viability, T/C [2]: 93.1% | viability, T/C [3]: 80.4% | viability, T/C [4]: 35.6% | viability, T/C [5]: 13.2% | viability, T/C [6]: 3.87% | viability, T/C [7]: 104% | viability, T/C [8]: 96.2% | viability, T/C [9]: 71.4% | viability, T/C [10]: 28.6% | viability, T/C [11]: 9.15% | viability, T/C [12]: 3.24% | viability, T/C [13]: 96% | viability, T/C [14]: 89.8% | viability, T/C [15]: 67.6% | viability, T/C [16]: 22.2% | viability, T/C [17]: 5.08% | viability, T/C [18]: 2.62% | viability, T/C [19]: 91.8% | viability, T/C [20]: 86.8% | viability, T/C [21]: 52.2% | viability, T/C [22]: 21.3% | viability, T/C [23]: 5% | viability, T/C [24]: 2.12% | viability, T/C [25]: 57.8% | viability, T/C [26]: 24.4% | viability, T/C [27]: 9.9% | viability, T/C [28]: 7.65% | viability, T/C [29]: 2.02% | viability, T/C [30]: 1.58%
